Reference: US11911399B2, “Treating and preventing disease with TMA and TMAO lowering agents” (The Cleveland Clinic Foundation, priority 2014, dated 2024)
“Also recorded” adds a separate entry of the source. Like-named read-outs stand apart in the source and are kept apart here.

Key:
[1] = system: parenchymal fibrosis and collagen deposition in mouse kidneys; experiment: Renal fibrosis, Mason trichrome quantitative morphometry; type: in vivo, C57BL/6J mice; settings: 6 weeks diet: TMAO 0.12% or choline 1.0% vs chow
Description: Quantitative Histologic Techniques.

cystatin C = experiment: Cystatin C levels in mice (ELISA); type: in vivo; settings: 16 weeks diet: TMAO 0.12% or choline 1.0% vs chow
SMAD3 = experiment: Immunoblot of Smad3 phosphorylation in mouse kidneys; type: in vivo, C57BL/6J mice; settings: 6 weeks diet: TMAO 0.12% or choline 1.0% vs chow
Description: (§1) Preparation of tissue homogenates and immunoblotting.

KIM-1 = experiment: Immunoblot of KIM-1 expression in mouse kidneys; type: in vivo, C57BL/6J mice; settings: 6 weeks diet: TMAO 0.12% or choline 1.0% vs chow
Description: as §1

[2] = system: in vivo thrombosis potential
[3] = omnivores, ASA 81 mg daily for at least a month, then daily choline supplementation
platelet aggregation = experiment: Platelet aggregometry with submaximal ADP stimulation in human subjects
Experimental: In further works, human volunteer subject were enrolled in the following study. Individuals were examined at baseline for plasma TMAO and blood drawn for platelet aggregometry studies with submaximal ADP stimulation. Subjects were examined both naïve to aspirin, and then at different time after taking chronic aspirin (81 mg daily) for at least a month. […] After washout period of at least 4 months with no choline supplement, subjects were placed on ASA daily (81 mg) and after a month of ASA, the baseline TMAO level and platelet aggregmetry measure monitored. Then, choline supplementation daily was again resumed.
Choline supplement was used in subjects (choline bitartrate, 2×500 mg/day=choline 2×205.7 mg/day), for 2 month period. Samples were collected at baseline and monthly blood were draw (1,2 months). Plasma levels of TMAO were measured and platelet aggregation in response to 5 uM ADP were measured.

microbial TMA lyase = experiment: TMA lyase activity of Proteus mirabilis lysate (TMA production from d9 substrates); type: biochemical
Experimental: Using PM lysate (PM that is lysed in a French press to break open the cell wall and release enzyme contents) as the enzyme source, the TMA lyase activity (TMA producing activity) was examined in incubations with either d9(trimethyl)choline as substrate, or […] (GPC) as substrate. […] A further examination of the impact of ASA on TMA lyase activity by PM lysate was undertaken. Three mg of PM lysate was incubated with 25 uM choline and 25 uM choline(d9) in 2 ml PBS at 37 C for 20 hours. In FIG. 7, the dotted lines at 81 mg and 320 mg ASA represent reported steady state plasma levels of aspirin reported at those doses in human subjects. […] In light of this, in some embodiments, enteric coated aspirin or aspirin derivatives that have delayed absorption may be employed to treat disease since they would dissolve in the intestines past the stomach, such that the level of ASA or derivative delivered to the gut lumen will be higher. There exist even longer delayed release formulations of medications that could also be used.

[4] = Plasma TMAO in mice on chow or choline diet with or without ASA (LC/MS/MS); type: in vivo, C57BL/6J females mice; settings: both diets (chow and choline), p<0.05 in each diet

SMILES | parenchymal fibrosis and collagen deposition [1] | serum cystatin C levels (cystatin C) | phosphorylation of Smad3 (serine 423/425) (SMAD3) | kidney injury marker-1 (KIM-1) (KIM-1) | time to blood flow cessation ([2]; choline diet+ASA group vs control (chow and no ASA)) | rise in plasma TMAO on choline supplementation [3] | rise in platelet aggregation on choline supplementation (platelet aggregation; omnivores, ASA 81 mg daily, submaximal ADP stimulation) | TMA lyase inhibition (microbial TMA lyase; 3 mg PM lysate, 25 uM choline and 25 uM choline(d9), 37 C, 20 hours, at ASA plasma level anticipated for 320 mg dose) | inhibition of TMA production (choline TMA lyase activity) (microbial TMA lyase; PM lysate, d9(trimethyl)choline as substrate, physiological range of ASA) | inhibition of TMA production (GPC TMA lyase activity) (microbial TMA lyase; PM lysate, d9(trimethyl)glycerophosphocholine (GPC) as substrate, physiological range of ASA) | reduction in TMAO level by addition of ASA [4] | time to blood flow cessation ([2]; choline diet alone vs chow, p<0.0001) | platelet aggregometry (platelet aggregation; human, in vivo)
C[N+](C)(C)[O-] [TMAO, trimethylamine N-oxide] | corresponding increases in parenchymal fibrosis and collagen deposition | increased serum cystatin C levels compared to chow-fed mice | enhanced phosphorylation of Smad3 | increased kidney injury marker-1 |  |  |  |  |  |  |  |  | 
CC(=O)Oc1ccccc1C(=O)O [ASA, acetylsalicylic acid] |  |  |  |  | no difference in time to blood flow cessation relative to the control | The impact of the choline diet on rise in TMAO was blunted | corresponding rise in platelet aggregation too was blunted | approximately 40% | inhibited TMA production; also recorded: inhibits | inhibited TMA production; also recorded: inhibits | approx. 2 fold |  | 
C[N+](C)(C)CCO [choline] | corresponding increases in parenchymal fibrosis and collagen deposition | increased serum cystatin C levels compared to chow-fed mice | enhanced phosphorylation of Smad3 | increased kidney injury marker-1 |  |  |  |  |  |  |  | reduces the time to blood flow cessation | corresponding increases in platelet aggregometrry
